The nature of data set [1]: Nonspecific brain tissue binding (free fraction). The format is in vitro ADME, mouse. To be noted: brain tissue. The source says:
(§1) Example 3 of U.S. Pat. No. 9,789,131, which is incorporated herein by reference, describes assays for determining the plasma and brain free fraction of certain compounds such as I-1. Compounds described herein may be evaluated using such assays or similar variants thereof.

Data set [2] relates to traumatic brain injury (TBI) in mice. The data set is described as follows: Mouse traumatic brain injury (TBI) model. The format is in vivo. How it is done:
Animals and traumatic brain injury (TBI): TBI is performed with a controlled closed skull injury model as described in Talley-Watts et al. 2012 (J. Neurotrauma 30, 55-66). Following the method described therein, a pneumatic impact device is used to generate a moderate TBI leaving the skull and dura matter intact. To achieve this, C57BL/6 mice are anesthetized with isoflurane (3% induction, 1% maintenance) in 100% oxygen. A body temperature of 37° C. is maintained using a temperature-controlled heated surgical table. A small midline incision is made on the scalp using aseptic surgical techniques. A 5 mm stainless steel disc is positioned on the skull and fixed using superglue on the right parietal bone between bregma and lamda over the somatosensory cortex. The mouse is then positioned on a stage directly under the pneumatic impact tip. […] Mice are placed in a Thermo-Intensive Care Unit (Braintree Scientific model FV-1; 37° C.; 27% O2) and monitored until fully awake and moving freely. […]
Western Blot Analysis for GFAP: At selected survival times, mice are anesthetized under isoflurane and sacrificed. […] The homogenate is transferred to a 2 mL tube and centrifuged at 1000 g for 10 minutes at 4° C. and the supernatant is collected and analyzed. Protein concentration is determined by the BCA assay using a 1:50 dilution. […]

Data set [3] concerns photothrombosis-induced stroke in mice. Put plainly: Mouse photothrombotic stroke model. The format is in vivo. To be noted: mouse, stroke. How it is done: Photothrombosis-induced Stroke: Photothrombosis is performed as described in Zheng et al 2010 (PloS One 5 (12): e14401). In brief, Rose Bengal is a fluorescent dye that when injected into the vasculature and excited, generates singlet oxygen that damages the endothelial wall and induces a local thrombosis (clot). Using this technique, mice are given a 0.1 mL tail-vein injection of sterilized Rose Bengal (RB, Sigma, U.S.A.) in artificial cerebral spinal fluid (aCSF). The RB concentration is 20 mg/mL. A cortical region is centered in the imaging field and illuminated with a green laser (543 nm, 5 mW) using a 0.8-NA 40× water-immersion objective (Nikon, Tokyo). The clot formation is monitored in real time until the targeted vessel or downstream capillaries are firmly occluded. Stable clots are subsequently identified by a non-fluorescent vessel segmentation ending with highly fluorescent regions. […] Treatments, at doses such as 0.5 μmol/kg are introduced via intraperitoneal injections (i.p.). For experiments with A3 receptor antagonist MRS1523, mice are administered intraperitoneal injections (2 mg/kg) at the 0 and 2 hour timepoints to ensure receptor antagonism throughout the course of the study.
Animals and Photothrombosis-induced Stroke: Stroke is performed as described in Zheng et al 2010 (PloS One 5 (12): e14401). Female C57Bl/6 mice (4-6 months) are used in this study. From the methods of this manuscript: Mice are anesthetized at 3% isoflurane with 100% oxygen and subsequently maintained at 1% isoflurane through a nosecone. Depth of anesthesia is monitored and regulated according to vital signs, pinch withdrawal and eye blinks. Body temperature is maintained at 37° C. by a feedback-controlled heating pad (Gaymar T/Pump). Vital signs including oxygen saturation, respiratory rate, and heart rate are continuously monitored by using the MouseOx system (STARR Life Sciences). […]
Post photothrombotic infarction evaluation. The size of cerebral infarcts is evaluated using 2,3,5-Triphenyltetrazolium chloride (TTC) staining as described in Zheng et al 2010 (PloS One 5 (12): e14401). […]

Data set [4] in a line: Plasma protein binding (free fraction). The format is in vitro ADME, mouse.
From the text: as §1

In data set [5] the target is T1, Human A3R (Homo sapiens, UniProt P0DMS8).
T1 construct: expressed in transfected cells
T1 sequence (P0DMS8 1-318): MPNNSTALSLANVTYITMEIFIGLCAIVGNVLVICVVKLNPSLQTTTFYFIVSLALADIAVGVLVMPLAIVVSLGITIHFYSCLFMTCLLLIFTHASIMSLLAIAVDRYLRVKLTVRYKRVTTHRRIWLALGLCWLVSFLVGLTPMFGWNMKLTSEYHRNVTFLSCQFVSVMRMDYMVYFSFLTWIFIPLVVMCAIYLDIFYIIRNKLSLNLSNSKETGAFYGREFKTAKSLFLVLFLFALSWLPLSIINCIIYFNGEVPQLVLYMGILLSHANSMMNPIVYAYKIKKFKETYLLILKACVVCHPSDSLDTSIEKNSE
The data set is described as follows: Radioligand binding at human A3 adenosine receptor ([125I]I-AB-MECA, CHO cell membranes). To be noted: n = 1; read-out: Affinity (nM) at Human A3R. How it is done: [3H]R—N^6-Phenylisopropyladenosine ([3H]R-PIA, 63 Ci/mmol), [^3H](2-[p-(2-carboxyethyl)phenyl-ethylamino]-5′-N-ethylcarboxamido-adenosine) ([^3H]CGS21680, 40.5 Ci/mmol) and [^125I]N^6-(4-amino-3-iodobenzyl)adenosine-5′-N-methyluronamide ([^125I]I-AB-MECA, 2200 Ci/mmol) were purchased from Perkin-Elmer Life and Analytical Science (Boston, MA). Test compounds were prepared as 5 mM stock solutions in DMSO and stored frozen.
Cell Culture and Membrane Preparation—CHO cells stably expressing the recombinant hA1 and hA3ARs and HEK293 cells stably expressing the hA2AAR were cultured in Dulbecco's modified Eagle medium (DMEM) and F12 (1:1) supplemented with 10% fetal bovine serum, 100 units/mL penicillin, 100 μg/mL streptomycin, and 2 μmol/mL glutamine. In addition, 800 μg/mL geneticin was added to the A2A media, while 500 μg/mL hygromycin was added to the A1 and A3 media. After harvesting, cells were homogenized and suspended in PBS. Cells were then centrifuged at 240 g for 5 min, and the pellet was resuspended in 50 mM Tris-HCl buffer (pH 7.5) containing 10 mM MgCl2. The suspension was homogenized and was then ultra-centrifuged at 14,330 g for 30 min at 4° C. The resultant pellets were resuspended in Tris buffer, incubated with adenosine deaminase (3 units/mL) for 30 min at 37° C. The suspension was homogenized with an electric homogenizer for 10 sec, pipetted into 1 mL vials and then stored at −80° C. until the binding experiments. The protein concentration was measured using the BCA Protein Assay Kit from Pierce Biotechnology, Inc. (Rockford, IL).
Binding assays: Into each tube in the binding assay was added 50 μL of increasing concentrations of the test ligand in Tris-HCl buffer (50 mM, pH 7.5) containing 10 mM MgCl2, 50 μL of the appropriate agonist radioligand, and finally 100 μL of membrane suspension. For the A1AR (22 μg of protein/tube) the radioligand used was [^3H]R-PIA (final concentration of 3.5 nM). For the A2AAR (20 μg/tube) the radioligand used was [^3H]CGS21680 (10 nM). For the A3AR ([…]) the radioligand used was [^125I]I-AB-MECA (0.34 nM). Nonspecific binding was determined using a final concentration of 10 μM NECA diluted with the buffer. The mixtures were incubated at 25° C. for 60 min in a shaking water bath. Binding reactions were terminated by filtration through Brandel GF/B filters under a reduced pressure using a M-24 cell harvester (Brandel, Gaithersburg, MD). Filters were washed three times with 3 mL of 50 mM ice-cold Tris-HCl buffer (pH 7.5). Filters for A1 and A2AAR binding were placed in scintillation vials containing 5 mL of Hydrofluor scintillation buffer and counted using a Perkin Elmer Liquid Scintillation Analyzer (Tri-Carb 2810TR). Filters for A3AR binding were counted using a Packard Cobra II T-counter. The Ki values were determined using GraphPad Prism for all assays.
A3R binding of selected compounds. Using methods described herein, the affinity of selected compounds at the A3 receptor was measured.

The target in data set [6] is P2Y1R (Homo sapiens, UniProt P47900). To be noted: reference 6; cited from earlier work.
Data set [7] concerns the target T2, A3AR (Homo sapiens, UniProt P0DMS8).
T2 sequence (P0DMS8 1-318): T1 sequence (P0DMS8 1-318)
The following applies: reference 5; cited from earlier work.

P2Y1R, sequence (P47900 whole entry): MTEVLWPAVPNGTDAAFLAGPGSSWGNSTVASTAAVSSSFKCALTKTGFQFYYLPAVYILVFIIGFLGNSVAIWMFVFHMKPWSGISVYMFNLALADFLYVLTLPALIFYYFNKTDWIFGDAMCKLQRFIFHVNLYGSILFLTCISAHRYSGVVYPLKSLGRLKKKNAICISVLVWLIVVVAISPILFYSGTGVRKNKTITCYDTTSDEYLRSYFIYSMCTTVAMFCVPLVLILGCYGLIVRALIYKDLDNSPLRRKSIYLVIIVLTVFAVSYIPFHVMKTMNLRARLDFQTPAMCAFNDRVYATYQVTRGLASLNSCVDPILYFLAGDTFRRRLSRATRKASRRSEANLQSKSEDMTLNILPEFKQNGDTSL

On to `CNC(=O)[C@H]1O[C@@H](n2cnc3c(NCc4cccc(I)c4)nc(Cl)nc32)[C@H](O)[C@@H]1O` [Cl-IB-MECA, reference compound], for which the “free (unbound) fraction in brain” value in data set [1] is reported as 0.002. Moreover, the “efficacy in mouse TBI model” value in data set [2] is recorded as “weakly active”. The “efficacy in mouse photothrombotic stroke model” value in data set [3] is “inactive”. Besides, the “free (unbound) fraction in plasma” value in data set [4] came to 0.002.
For `CCSc1nc(N)c2ncn([C@H]3[C@H](O)[C@H](O)[C@]4(CO)C[C@H]34)c2n1` [Compound I-2, (1R,2R,3S,4R,5S)-4-(6-Amino-2-(ethylthio)-9H-purin-9-yl)-1-(hydroxymethyl)bicyclo[3.1.0]hexane-2,3-diol], the Ki in data set [5] was determined as 909 nM.
Consider `CCCCCCSc1nc(N)c2ncn([C@H]3[C@H](O)[C@H](O)[C@]4(CO)C[C@H]34)c2n1` [Compound I-3, (1R,2R,3S,4R,5S)-4-(6-Amino-2-(hexylthio)-9H-purin-9-yl)-1-(hydroxymethyl)bicyclo[3.1.0]hexane-2,3-diol], for which the Ki in data set [5] turned out to be 504 nM.
Consider `Nc1nc(SC2CCCCC2)nc2c1ncn2[C@H]1[C@H](O)[C@H](O)[C@]2(CO)C[C@H]12` [Compound I-4, (1R,2R,3S,4R,5S)-4-(6-Amino-2-(cyclohexylthio)-9H-purin-9-yl)-1-(hydroxymethyl)bicyclo[3.1.0]hexane-2,3-diol], for which, in data set [5], the Ki worked out at 1170 nM.
The same measure, in the same setting: the result for `Nc1nc(SCc2ccccc2)nc2c1ncn2[C@H]1[C@H](O)[C@H](O)[C@]2(CO)C[C@H]12` [Compound I-5, (1R,2R,3S,4R,5S)-4-(6-Amino-2-(benzylthio)-9H-purin-9-yl)-1-(hydroxymethyl)bicyclo[3.1.0]hexane-2,3-diol] reads 55 nM; that for `Nc1nc(SCCc2ccccc2)nc2c1ncn2[C@H]1[C@H](O)[C@H](O)[C@]2(CO)C[C@H]12` [Compound I-6, (1R,2R,3S,4R,5S)-4-(6-Amino-2-(phenethylthio)-9H-purin-9-yl)-1-(hydroxymethyl)bicyclo[3.1.0]hexane-2,3-diol], 379 nM; that for `COc1nc(N)c2ncn([C@H]3[C@H](O)[C@H](O)[C@]4(CO)C[C@H]34)c2n1` [Compound I-7, (1R,2R,3S,4R,5S)-4-(6-Amino-2-methoxy-9H-purin-9-yl)-1-(hydroxymethyl)bicyclo[3.1.0]hexane-2,3-diol], 1050 nM.
For `CSc1nc(N)c2ncn([C@H]3C(O)[C@@H](O)[C@]4(COP(=O)(O)OP(=O)(O)O)C[C@H]34)c2n1` (stereo partly drawn) [MRS2365], in data set [6], the Ki is 0.4 nM.
For the compound `CNC(=O)[C@@]12C[C@@H]1[C@@H](n1cnc3c(NCc4cccc(Cl)c4)nc(SC)nc31)C(O)[C@H]2O` (stereo partly drawn) [MRS3611], in data set [7], the Ki is 1.5 nM.

(Values after patent publication US20240368164A1, “PURINE NUCLEOSIDES, THEIR INTERMEDIATES, AND METHODS OF PREPARATION THEREOF” (Astrocyle Pharmaceuticals, Inc., priority 2021, published 2024).)
